Measured values as given in US5554357A, “Magnetic resonance imaging agents containing hydrazide moieties” (Mallinckrodt Medical, Inc., priority 1994, dated 1996).

How the values were obtained:
[1] = T1 relaxivity by spin-echo NMR; format: physicochemical; conditions: 90 MHz, H2O/D2O (4:1), six concentrations from 20 mM down; least-square fit of 1/T1 versus concentration, correlation coefficient 0.9994
Description: T1 relaxation times were measured using spin-echo sequence on the JEOL FX90Q (90 MHz) FT-NMR spectrometer/ Twenty millimolar solution of the complex in Example 1 was prepared in H2 O/D2 O (4:1) mixture and was serially diluted to lower concentrations ([…]) with H2 O/D2 O (4:1) mixture. T1 measurements were made at each of these 6 concentrations. The relaxivity (R1) was determined by applying least-square fit to the plot of 1/T1 versus concentration. The relaxivity of the complex in Example 1 was 4.85+0.06 mM^-1 sec^-1. The correlation coefficient for the least squares analysis was 0.9994.

[2] = test system: ICR mice; test: acute intravenous toxicity; format: in vivo, mouse (ICR); conditions: single intravenous injection via lateral tail vein, males and females, 7 days observation, 95% Confidence Limits 6.8-19.6 mmol/kg
Description: The acute intravenous toxicity of the compound of Example 1 was determined as follows: ICR mice, at 1 to 4 per dose level, received single intravenous injections of the test substance via a lateral tail vein at the rate of approximately 1 ml/minute. The test substances were at concentrations chosen to result in dose volumes of 5 to 75 ml/kg body weight. Dosing began at a volume of 10 ml/kg. Dose adjustments up or down were made to closely bracket the estimated LD50 with 4 animals per group (2 males and 2 females). Observations of the mice were recorded at times 0, 0.5, 1, 2, 4 and 24 hours and once daily thereafter for up to 7 days post injection. On the 7th day post injection, the mice were euthanized, weighed and necropsied. Abnormal tissues were noted. At this time a decision was made as to whether any histopathology was to be performed and whether or not the tissues should be retained. Necropsies were also performed on mice expiring after 24 hours post-injection, except for dead mice found on the weekends. The LD50 values, along with 95% CI were calculated using a modified Behrens-Reed-Meunch method.

CN(C)NC(=O)CN(CCN(CCN(CC(=O)[O-])CC(=O)NN(C)C)CC(=O)[O-])CC(=O)[O-].O.[Gd+3] [Example 1]
relaxivity (R1) [1]: 4.85 ± 0.06 mM⁻¹ s⁻¹ | LD50 [2]: 11.5 mmol/kg
